Measured values reported in patent publication US20260207768A1, “NOVEL LINKER DRUGS COMPRISING PHOSPHOANTIGENS, NOVEL CONJUGATES AND THEIR USE IN THERAPY” (priority 2022, published 2026).

Key:
[1] = system: CD20-positive Burkitt's Lymphoma human tumor cell line Raji; assay: Cellular binding to Raji cells (flow cytometry, MFI); details: 30 minutes at 4° C.
Procedure: The CD20-positive Burkitt's Lymphoma human tumor cell line Raji (DSMZ, the German collection of Microorganisms and cell cultures GmbH) was used for in vitro experiments. Raji cells were cultured in complete growth medium (CGM): RPMI-1640 (Lonza) supplemented with 10% Heat-inactivated (HI) Fetal Bovine Serum (FBS) (Gibco) and 80 U/mL Penicillin-Streptomycin solution (Lonza). Raji cells were maintained at 37° C. in a humidified incubator containing 5% CO2 and sub-cultured twice a week. […] Fluorescence intensities were determined by flow cytometry using the NovoCyte (Agilent) and determined as the median fluorescence intensity (MFI). […] EC50 values were calculated in GraphPad Prism as the concentration in μg/mL that gives a response halfway between bottom and top of the curve. […]
These ADCs were tested for their ability to bind Raji cells (using a binding assay, as described in Example 5) and to activate Vdelta2 gammadelta T-cells after overnight incubation with CD20-positive Raji cells. The pretreated Raji cells were cocultured with peripheral blood mononuclear cells (PBMCs) and activation (IFNγ production) and degranulation (CD107a) of Vdelta2 gammadelta T-cells and NK-cells was determined using multicolor flow cytometry, as described for the Functional assay in Example 5.

[2] = system: Vdelta2 gammadelta T-cells; assay: Functional assay: Vdelta2 gammadelta T-cell activation (CD107a, IFNγ) after co-culture of PBMCs with pretreated Raji cells; format: cell-based, human; set-up: key to IFNγ production by Vdelta2 populations, EC50: †: incomplete curve saturation (no EC50 calculation possible); ††: low number of IFNγ-positive cells, no reliable EC50 calculation possible; details: Donor two; Raji cells pre-treated overnight, 6 hours coculture with PBMCs
Procedure: Multiple synthesized linker drug compounds were conjugated to rituximab (anti-CD20) and resulting ADCs were tested for their ability to bind Raji cells and to activate Vdelta2 gammadelta T-cells after overnight incubation with CD20-positive Raji cells. The linker drug compounds that were conjugated to rituximab, and resulting ADCs, are within the list reflected in Table 1. The pretreated Raji cells were cocultured with peripheral blood mononuclear cells (PBMCs) and activation (IFNγ production) and degranulation (CD107a) of Vdelta2 gammadelta T-cells and NK-cells was determined using multicolor flow cytometry.
For stimulation with ADCs according to the invention, Raji cells were harvested, diluted to a concentration of 5×10^6 cells/mL and 50 μL (equivalent to 250,000 cells/well) of this cell suspension was seeded into a 96-well plate. […] The recovered PBMCs were harvested, counted and diluted to a concentration of 10×10^6 cells/mL in CGM, and 50 μL/well (equivalent to 0.5×10^6 cells/well) was added to the Raji cells. […]

NK-cells = details: shown in WO2023/275025; cited from earlier work

- EC50 binding to Raji cells [1]: 3.30 µg/mL
- CD107a production by Vdelta2 populations, EC50 [2]: 0.094 µg/mL
- IFNγ production by Vdelta2 populations, EC50 [2]: ††
Substance: Rituximab: anti-CD20 antibody rituximab [reference compound]
- Activation of NK-cells (in words) (NK-cells): induced activation of NK-cells
